Patent US20240366571A1, “MODULATORS OF SK4 POTASSIUM CHANNEL AND USES THEREOF” (Ramot at Tel-Aviv University Ltd., priority 2022, published 2024)
“Also recorded” adds a separate entry of the source.

Target: T1, human SK4 (Homo sapiens, UniProt O15554)
T1 construct: expressed in transfected cells; host or cells: CHO cells
Experiment: Whole-cell patch-clamp of WT SK4 K+ currents in transfected CHO cells
Type: cell-based
Settings: 20 μM, whole-cell
Procedure: Constructs: For CHO cell transfection, the following were cloned: human SK1, rat SK2, human SK3, and rat calmodulin into the pcDNA3 vector, human SK4 into pEGFP-C1 vector, and PIP4,5-kinase into an IRES-dsRed plasmid. The mutations were introduced using the PCR-based QuikChange™ site-directed mutagenesis (Stratagene®) and were verified by full sequencing of the entire plasmid vector.
Cell Culture and Transfection: Chinese hamster ovary (CHO) cells were grown in Dulbecco's modified Eagle's medium supplemented with 2 millimolar (mM) glutamine, 10% fetal calf serum, and antibiotics. In brief, 40,000 cells seeded on poly-L-lysine-coated glass coverslips (13 millimeter (mm) in diameter) in a 24-multiwell plate were transfected with 0.5 microgram (μg) pEGFP-SK4/0.5 μg mutant SK4, 1.2 μg dsRed-PIP4,5-kinase or with 1 μg SK1/SK2/SK3 together with pIRES-CD8 (0.3 μg) as a marker for transfection. Transfection was performed using TransIT-LT1 Transfection Reagent (Mirus Bio) according to the manufacturer's protocol. For electrophysiology, transfected cells were visualized approximately 40 hours after transfection with a Zeiss Axiovert 35 inverted florescence microscope.
Whole-cell patch-clamp recording: Voltage-clamp recordings were performed using the whole-cell configuration of the patch-clamp technique. Signals were amplified using an […] patch-clamp amplifier (Molecular Devices), sampled at 5 kHz and filtered at 2.4 kHz via a four pole Bessel low pass filter. Data were acquired using pClamp™ 10.5 software in conjunction with an Axon™ DigiData® 1440A interface (Molecular Devices). The patch pipettes were pulled from borosilicate glass (Harvard Apparatus) with a resistance of 3-5 megaohms (MΩ). The intracellular pipette solution contained 130 mM KCl, 5 mM EGTA, 10 mM HEPES, pH 7.3 (adjusted with KOH), and CaCl2 calculated for a final concentration of 1 μM free-Ca^2+, by MAXCHELATOR (WEBMAXC STANDARD) software, with sucrose added to adjust osmolarity to 290 mosM. The external solution (310 mosM) contained 140 mM NaCl, 4 mM KCl, 1.8 mM CaCl2, 1.2 mM MgCl2, 11 mM glucose, and 5.5 mM HEPES adjusted with NaOH to pH 7.3. CHO cells were held at −90 millivolt (mV) and SK4 K^+ currents were activated using a voltage ramp protocol from −100 mV to +60 mV for 150 milliseconds. Electrophysiological data analysis was performed using the Clampfit program (pClamp™ 10.5; Molecular Devices).
Some of the compounds were tested by comparing trace of WT SK4 channel currents in the absence and presence of 20 μM of the tested compound.

inhibition of WT SK4 currents	Structure (SMILES)
about 25%	CCCCCCCn1c(=O)[nH]c2ccccc21 [BA6B, 1-heptyl-1,3-dihydro-2H-benzo[d]imidazol-2-one]

Same assay, conditions: CHO, 20 μM, whole-cell

inhibition at 20 µM [%]	Structure (SMILES)
25	CCCCCCCn1c(=O)[nH]c2ccccc21 [BA6B, 1-heptyl-1,3-dihydro-2H-benzo[d]imidazol-2-one]

Same assay, conditions: WT SK4 currents in absence and presence of 20 μM compound

Structure (SMILES)	SK4 K+ channel modulating activity
Cc1cc2[nH]c(=O)[nH]c2cc1C [BA50, 5,6-dimethyl-1,3-dihydro-2H-benzo[d]imidazol-2-one]	Inactive
CCCCCCCn1c(=O)n(CCCCCCC)c2ccccc21 [BA6A, 1,3-diheptyl-1,3-dihydro-2H-benzo[d]imidazol-2-one]	Inactive
CCCCCCCCn1c(=O)n(CCCCCCCC)c2ccccc21 [BA7A, 1,3-dioctyl-1,3-dihydro-2H-benzo[d]imidazol-2-one]	Inactive
CCCCCn1c(=O)n(CCCCC)c2ccccc21 [BA4A, 1,3-dipentyl-1,3-dihydro-2H-benzo[d]imidazol-2-one]	Inactive
CCCCCCCCCCCCn1c(=O)n(CCCCCCCCCCCC)c2ccccc21 [BA9A, 1,3-didodecyl-1,3-dihydro-2H-benzo[d]imidazol-2-one]	Inactive
CCCCCCCCn1c(=O)[nH]c2ccccc21 [BA7B, 1-octyl-1,3-dihydro-2H-benzo[d]imidazol-2-one]	Inactive
Cn1c(=O)n(C)c2ccccc21 [BA2A, 1,3-dimethyl-1,3-dihydro-2H-benzo[d]imidazol-2-one]	Inactive
CCCCCCn1c(=O)[nH]c2ccccc21 [BA5B, 1-hexyl-1,3-dihydro-2H-benzo[d]imidazol-2-one]	inhibition; also recorded: Inhibitor
CCCCCn1c(=O)n(CCCCC)c2cc(Cl)c(Cl)cc21 [BA42, 5,6-dichloro-1,3-dipentyl-1,3-dihydro-2H-benzo[d]imidazol-2-one]	Inactive
CCCn1c(=O)n(CCC)c2cc(C)ccc21 [BA2OC3c, 5-methyl-1,3-dipropyl-1,3-dihydro-2H-benzo[d]imidazol-2-one]	Inactive
CCCCCCCCCCn1c(=O)n(CCCCCCCCCC)c2ccccc21 [BA8A, 1,3-didecyl-1,3-dihydro-2H-benzo[d]imidazol-2-one]	Inactive
CCCCCn1c(=O)[nH]c2ccccc21 [BA4B, 1-pentyl-1,3-dihydro-2H-benzo[d]imidazol-2-one]	inhibition; also recorded: Inhibitor
CCCCCn1c(=O)n(CCCCC)c2cc(C)ccc21 [BA23, 5-methyl-1,3-dipentyl-1,3-dihydro-2H-benzo[d]imidazol-2-one]	Inactive
CCCCCCn1c(=O)n(CCCCCC)c2ccccc21 [BA5A, 1,3-dihexyl-1,3-dihydro-2H-benzo[d]imidazol-2-one]	Inactive
CCCn1c(=O)n(CCC)c2ccccc21 [BA3A, 1,3-dipropyl-1,3-dihydro-2H-benzo[d]imidazol-2-one]	Inactive
Cc1ccc2c(c1)n(C)c(=O)n2C [BA2OC1c, 1,3,5-trimethyl-1,3-dihydro-2H-benzo[d]imidazol-2-one]	Inactive
CCCCCn1c(=O)n(CCCCC)c2cc(F)ccc21 [BA63, 5-fluoro-1,3-dipentyl-1,3-dihydro-2H-benzo[d]imidazol-2-one]	Inactive
CCCCCCCn1c(=O)[nH]c2ccccc21 [BA6B, 1-heptyl-1,3-dihydro-2H-benzo[d]imidazol-2-one]	inhibited; also recorded: inhibition; also recorded: Inhibitor
CCCn1c(=O)[nH]c2ccccc21 [BA3B, 1-propyl-1,3-dihydro-2H-benzo[d]imidazol-2-one]	Inactive
CCCCCCCCCCn1c(=O)[nH]c2ccccc21 [BA8B, 1-decyl-1,3-dihydro-2H-benzo[d]imidazol-2-one]	Inactive

Further lines, results first:

SK4 K+ channel modulating activity	Structure (SMILES)
Inactive	Cc1cccc2[nH]c(=O)[nH]c12 [BA30, 4-methyl-1,3-dihydro-2H-benzo[d]imidazol-2-one]
Inactive	CCCCCCn1c(=O)n(CCCCCC)c2cc(C)ccc21 [BA26, 1,3-dihexyl-5-methyl-1,3-dihydro-2H-benzo[d]imidazol-2-one]
Inactive	CCCCCCn1c(=O)n(CCCCCC)c2cc(F)ccc21 [BA66, 5-fluoro-1,3-dihexyl-1,3-dihydro-2H-benzo[d]imidazol-2-one]
Inactive	CCCCCCn1c(=O)n(CCCCCC)c2cc(C)c(C)cc21 [BA54, 1,3-dihexyl-5,6-dimethyl-1,3-dihydro-2H-benzo[d]imidazol-2-one]
Inactive	CCCCCCCn1c(=O)n(CCCCCCC)c2cc(C)ccc21 [BA29, 1,3-diheptyl-5-methyl-1,3-dihydro-2H-benzo[d]imidazol-2-one]
Inactive	CCCCCCCn1c(=O)n(CCCCCCC)c2cc(Cl)c(Cl)cc21 [BA46, 5,6-dichloro-1,3-diheptyl-1,3-dihydro-2H-benzo[d]imidazol-2-one]
Inactive	CCCCCCn1c(=O)n(CCCCCC)c2cc(Cl)c(Cl)cc21 [BA44, 5,6-dichloro-1,3-dihexyl-1,3-dihydro-2H-benzo[d]imidazol-2-one]
Inactive	Cc1ccc2[nH]c(=O)[nH]c2c1 [BA20, 5-methyl-1,3-dihydro-2H-benzo[d]imidazol-2-one]
Inactive	CCCCCCCn1c(=O)n(CCCCCCC)c2cc(C)c(C)cc21 [BA56, 1,3-diheptyl-5,6-dimethyl-1,3-dihydro-2H-benzo[d]imidazol-2-one]
Inactive	CCCCCCCn1c(=O)n(CCCCCCC)c2cc(F)ccc21 [BA69, 5-fluoro-1,3-diheptyl-1,3-dihydro-2H-benzo[d]imidazol-2-one]

Same assay, conditions: dose-dependent inhibition of WT SK4 channels; read-out: SK4 K+ channel modulating activity (IC50)

IC50 [µM]	Structure (SMILES)
50	CCCCCCCn1c(=O)[nH]c2ccccc21 [BA6B, 1-heptyl-1,3-dihydro-2H-benzo[d]imidazol-2-one]
